Entries after “also recorded” stand apart in the source; their conditions may differ.
What was measured:
PC3/PSC27 tumors = assay: DNA damage and apoptosis in tumors of treated mice; format: in vivo, mouse
Source text: To investigate mechanisms directly supporting this senescence-associated pattern with expression and reversal of SASP in MIT-administered mice, the inventors dissected tumors in animals treated with both drugs 7 days after the first SAE administration, and the time point of 7 days after administration was selected mainly because drug-resistant clones had not yet formed in cancer cells in the lesion at this time. […] As supporting evidence, when SAE was applied during treatment, caspase 3 cleavage activity was increased, which was a typical hallmark of apoptosis (FIG. 29).

PSC27 = assay: Caspase 3/7 apoptosis detection in senescent PSC27 cells (IncuCyte); format: cell-based, human; conditions: 200 μM SAE
Experimental: PSC27 cells gradually entered the senescent stage after being treated with BLEO for 12 hours under culture conditions. 200 μM SAE was added to the medium of senescent cells starting from day 7, NucLight Rapid Red reagent was used to label the cells and caspase 3/7 reagent (IncuCyte) was used for apoptosis detection. Caspase 3/7 activity was detected every 4 hours (n=3).
Statistical differences are obtained by two-way ANOVA (Turkey'test).
PSC27 cells were plated in a 96-well dish, and the cells were induced to senescence under 50 μg/ml of BLEO treatment. SAE and ABT263 were added at concentrations of 200 μM and 1.25 μM, respectively. Cell culture medium was supplemented with Incucyte Nuclight fast Red Reagent (Essen Bioscience) and Incucyte C-3/7 Apoptosis Reagent (Essen Bioscience). Representative field of view was selected to take pictures.

SASP factors [1] = assay: LCM and qRT-PCR of SASP factors in mouse lesions; format: in vivo; conditions: MIT/SAE vs MIT
Experimental: The stromal cells and cancer cells were specifically separated by LCM technology, total RNA was prepared and used for SASP expression detection. ^, P>0.05; *, P<0.05; **, P<0.01.
In a preclinical treatment trial, subcutaneously transplanted mice were fed with a standard experimental diet, after 2 weeks chemotherapy drugs mitoxantrone (MIT, dose: 0.2 mg/kg) and/or SAE (500 μl, dose: 10 mg/kg) via intraperitoneal administration. The time points were: the former was administrated on the first day of the 3rd, 5th and 7th weeks, and the latter was administrated on the first day of the 5th and 7th weeks. A total of 3 cycles of MIT administration were carried out throughout the course of treatment, and each cycle lasted for 2 weeks. After the course of treatment, mouse tumors were harvested for volume measurement and histological analysis. Each mouse cumulatively received 0.6 mg/kg body weight of MIT and 30 mg/kg body weight of SAE. In order to cause systemic expression of SASP factors induced by chemotherapy, MIT was administered to mice through intravenous infusion according to the above steps and sequence, but the dose was reduced to 0.1 mg/kg body weight/each time (the cumulative dose of MIT received in the whole course of treatment was 0.3 mg/kg body weight) to reduce drug-related toxicity. […]

[2] = tested on: PC3/PSC27 transplanted tumors; assay: PC3/PSC27 xenograft tumor volume in NOD/SCID mice; format: in vivo, mouse; conditions: single agent
Experimental: Every two weeks was a dosing cycle, and MIT (mitoxantrone) was intraperitoneally administered to the mice on the first day of the 3rd/5th/7th weeks. From the first day of the 5th week, the mice were intraperitoneally administered with SAE, […]. After the 8-week course of treatment, the mice were dissected for pathological identification and expression analysis.
All experimental mouse experiments were carried out in strict accordance with the relevant regulations of the Institutional Animal Care and Use Committee (IACUC), Shanghai Institutes for Biological Sciences, Chinese Academy of Sciences. Immuno-deficient mice (NOD-SCID mice, ICR) (body weight about 25 g) aged 6-8 weeks were used for animal experiments related to the present patent. Stromal cells PSC27 and epithelial cells PC3 were mixed at a predetermined ratio of 1:4, and each graft contained 1.25×10^6 cells for tissue remodeling. The xenograft tumors were implanted into mice by subcutaneous transplantation, and the animals were euthanized 8 weeks after the end of the transplantation surgery. Tumor volume was calculated according to the following formula: V=(π/6)×((1+w)/2)3 (V, volume; l, length; w, width).
(§1) In a preclinical treatment trial, subcutaneously transplanted mice were fed with a standard experimental diet, after 2 weeks chemotherapy drugs mitoxantrone (MIT, dose: 0.2 mg/kg) and/or SAE (500 μl, dose: 10 mg/kg) via intraperitoneal administration. The time points were: the former was administrated on the first day of the 3rd, 5th and 7th weeks, and the latter was administrated on the first day of the 5th and 7th weeks. A total of 3 cycles of MIT administration were carried out throughout the course of treatment, and each cycle lasted for 2 weeks. After the course of treatment, mouse tumors were harvested for volume measurement and histological analysis. Each mouse cumulatively received 0.6 mg/kg body weight of MIT and 30 mg/kg body weight of SAE. In order to cause systemic expression of SASP factors induced by chemotherapy, MIT was administered to mice through intravenous infusion according to the above steps and sequence, but the dose was reduced to 0.1 mg/kg body weight/each time (the cumulative dose of MIT received in the whole course of treatment was 0.3 mg/kg body weight) to reduce drug-related toxicity. The chemotherapy experiment ended at the end of the 8th week, and the mice were dissected immediately after sacrifice, and the xenograft tumors were collected and used for pathological system analysis.

SASP factors [3] = assay: RNA-seq and GSEA expression profile of BLEO-induced senescent PSC27 cells; format: cell-based, human
Experimental: To cause cell damage, 50 μg/mL bleomycin (bleomycin, BLEO) was added to the culture medium when PSC27 cells grew to 80% (abbreviated as PSC27-CTRL). After 12 hours of drug treatment, the cells were simply washed 3 times with PBS, left in the culture medium for 7-10 days, and then the subsequent experiments were performed.
Whole-transcriptome sequencing was performed on the primary human prostate stromal cell line PSC27 under different treatment conditions. Total RNA samples were obtained from stromal cells. Their integrity was verified by Bioanalyzer 2100 (Agilent), RNA was sequenced by Illumina HiSeq X10, and gene expression levels were quantified by software package rsem (https://deweylab. github.io/rsem/). Briefly, rRNA was depleted from RNA samples with the RiboMinus Eukaryote Kit (Qiagen, Valencia, CA, USA); and according to the manufacturer's instructions, TruSeq Stranded Total RNA Preparation Kits (Illumina, San Diego, CA, USA) was used to construct a strand-specific RNA-seq library before deep sequencing.
Paired-end transcriptomic reads were mapped to a reference genome (GRCh38/hg38), and reference-annotation was performed from Gencode v27 using the Bowtie tool. Duplicate reads were identified using the picard Tools (1.98) script to mark duplicates (https://github. com/broadinstitute/picard), and only non-duplicate reads were retained. Reference splice junctions were provided by reference transcriptome (Ensembl Build 73). FPKM values were calculated with Cufflinks, and Cufflinks maximum likelihood estimation function was used to call differential gene expression. […]
Based on the data obtained from the preliminary analysis of RNA-seq, after analyzing and comparing each differentially expressed significant gene, the genes were sorted using the “wald statistics” obtained from DESeq2. […] DESeq2 independent filtering was based on the average of normalized read counts to select genes with very low expression levels. […]

[4] = tested on: senescent cells in tumor tissue; assay: SA-β-Gal staining of tumor tissues of PC3/PSC27 tumor-bearing mice; format: in vivo, mouse; conditions: SAE with MIT
Experimental: Representative pictures after SA-β-Gal staining. Scale bar, 100 μm.
as §1

For `O=C(/C=C/c1ccc(O)c(O)c1/C(=C\c1ccc(O)c(O)c1)C(=O)O[C@H](Cc1ccc(O)c(O)c1)C(=O)O)O[C@H](Cc1ccc(O)c(O)c1)C(=O)O` [SAE, salvianolic acid E], the “indices of DNA damage or apoptosis” value (PC3/PSC27 tumors; MIT-treated animals administered with SAE) was “significantly enhanced”, the “caspase 3 cleavage activity” value (PC3/PSC27 tumors; SAE applied during treatment) was “significantly increased” and the “degree of DNA damage and apoptosis” value (PC3/PSC27 tumors; single agent compared with placebo, 7 days after first SAE administration) was “could not induce DNA damage or cause apoptosis”. For the same molecule, the “caspase-3/7 activity: apoptosis of senescent cells” value (PSC27) was “caused apoptosis of senescent cells”, the “time after addition of SAE from which senescent and control group differ statistically” value (PSC27; caspase 3/7 activity) was no less than 16 h and the “change of SASP factor expression when SAE was administered” value (SASP factors [1]) was “largely reversed”. For the same molecule, the “tumor shrinkage by the agent itself” value [2] was “did not cause tumor shrinkage”, the “expression of SASP factors in senescent cells after SAE treatment” value (SASP factors [3]; BLEO-induced senescent PSC27) was “universally reduced; also recorded: generally decreased” and the “molecular signatures characterizing SASP expression or NF-κB activation (GSEA)” value (SASP factors [3]; BLEO-induced senescent PSC27 after SAE) was “significant repression”. The “expression profile of senescent cells” value (SASP factors [3]; RNA-seq, BLEO-induced senescent PSC27) was “significantly altered” and the “senescent cells in the lesions of animals treated with chemotherapeutic drugs after SAE administration” value [4] was “essentially depleted most senescent cells”.

Source: US20250295619A1, “Use of Salvianolic Acid E in the Preparation of Drugs Targeting Senescent Cells, Inhibiting Tumors or Extending Lifespan” (Shanghai Institute of Nutrition and Health, Chinese Academy …, priority 2024, published 2025)
